# In patent US20130209439A1, “INHIBITORS OF PDE4 BINDING TO HSP20” (THE UNIVERSITY COURT OF THE UNIVERSITY OF GLASGOW, priority 2010, published 2013):
# Where no end group is shown, it is not given here.
# Test system: neonatal cardiac myocytes
# Assay: Cardiac myocyte size by xCELLigence impedance (normalised cell index)
# Format: cell-based, rat
# Settings: 24 hour isoprenaline 10 μM, 30 min pre-treatment with 10 μM peptide
# Experimental: FIG. 7. Peptide disruption of the PDE4D-HSP20 complex attenuates the hypertrophic response triggered by constant […]-agonist treatment. A, Upper panel. The area covered by isolated cardiac myocytes was used as a measure of cell size. Lower panel, Graphical depiction of the mean areas (N=100) of cells following 24 hours of indicated treatments. B, impedance measurements were used to calculate continuous normalised cell index using exCELLigence technology Normalised mean (n=4) cell index after 24 hours of indicated treatments.
# The E-Plate 96 (Roche) was used for these experiments^45. This comprises a 96-well plate with integral sensor electrode arrays to measure cell impedance. […] E-plate 96 is a 96-well microtiter plate with incorporated gold cell sensor arrays in the bottom, which allows impedance inside each well to be monitored and assayed in real time. […] The impedance measured between electrodes in an individual well depends on electrode geometry, ion concentration in the well and whether or not cells are attached to the electrodes^45. In the absence of cells, electrode impedance is mainly determined by the ion environment both at the electrode/solution interface and in the bulk solution. […] Small changes in impedance can also be recorded when cells temporally change shape or size in response to agonists^46,57. […]
substance,measurement,value
"Peptide 906: stearoylated, cell-permeable disrupter peptide of PDE4D5 residues E468-K492 (SEQ ID NO: 36) (ENHHLAVGFKLLQEENSDIFQNLTK; also: stearoylated, site not given here)","cell size (normalised cell index, impedance) of cardiac myocytes",could be rescued
